Laboratory results published in ChEMBL document CHEMBL5143693, “Design and synthesis of endocannabinoid enzyme inhibitors for ocular indications” (Bioorg Med Chem Lett, 2022).
Calls of active or inactive are those of the source. The rule behind the calls is not given here.

What was measured:
[1] = target: T1, Fatty-acid amide hydrolase 1 (Homo sapiens, UniProt O00519); assay: Inhibition of FAAH (unknown origin) by fluorescence based method
T1 sequence (O00519 whole entry): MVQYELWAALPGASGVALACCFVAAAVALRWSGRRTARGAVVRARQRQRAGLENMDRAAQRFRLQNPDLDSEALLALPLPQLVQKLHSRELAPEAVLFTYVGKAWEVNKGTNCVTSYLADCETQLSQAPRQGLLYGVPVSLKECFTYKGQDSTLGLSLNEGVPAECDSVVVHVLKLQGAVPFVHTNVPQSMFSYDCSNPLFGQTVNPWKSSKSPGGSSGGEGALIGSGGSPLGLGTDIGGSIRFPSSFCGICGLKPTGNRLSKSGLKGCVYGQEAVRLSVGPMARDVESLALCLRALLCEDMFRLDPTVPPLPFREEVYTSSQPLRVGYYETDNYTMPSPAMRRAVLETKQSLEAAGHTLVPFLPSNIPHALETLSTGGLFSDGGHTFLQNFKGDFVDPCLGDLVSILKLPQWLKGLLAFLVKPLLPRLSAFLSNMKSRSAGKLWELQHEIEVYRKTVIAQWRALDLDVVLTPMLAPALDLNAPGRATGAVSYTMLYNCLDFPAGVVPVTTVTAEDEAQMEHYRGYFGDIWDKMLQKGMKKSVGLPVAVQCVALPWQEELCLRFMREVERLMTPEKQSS

[2] = target: T2, Monoglyceride lipase (Homo sapiens, UniProt Q99685); assay: Inhibition of MAGL (unknown origin) by fluorescence based method
T2 sequence (Q99685 whole entry): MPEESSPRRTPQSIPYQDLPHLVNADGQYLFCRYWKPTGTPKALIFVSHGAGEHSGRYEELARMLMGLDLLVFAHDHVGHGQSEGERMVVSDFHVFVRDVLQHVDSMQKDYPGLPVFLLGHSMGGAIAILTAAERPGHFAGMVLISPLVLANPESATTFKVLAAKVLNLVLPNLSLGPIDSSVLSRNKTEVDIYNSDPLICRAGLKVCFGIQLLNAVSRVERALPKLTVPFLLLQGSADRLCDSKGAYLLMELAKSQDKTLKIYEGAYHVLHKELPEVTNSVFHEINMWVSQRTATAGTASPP

[3] = Permeability of the compound by measuring lambda maximum incubated for 18 hrs by PAMPA method; format: ADME; conditions: read-out: permeability
[4] = target: T3, Monoglyceride lipase (Rattus norvegicus) (UniProt Q8R431); assay: Inhibition of MAGL in rat eye homogenate assessed as blockage of […] labelling by ABPP assay; format: tissue-based
T3 sequence (whole entry): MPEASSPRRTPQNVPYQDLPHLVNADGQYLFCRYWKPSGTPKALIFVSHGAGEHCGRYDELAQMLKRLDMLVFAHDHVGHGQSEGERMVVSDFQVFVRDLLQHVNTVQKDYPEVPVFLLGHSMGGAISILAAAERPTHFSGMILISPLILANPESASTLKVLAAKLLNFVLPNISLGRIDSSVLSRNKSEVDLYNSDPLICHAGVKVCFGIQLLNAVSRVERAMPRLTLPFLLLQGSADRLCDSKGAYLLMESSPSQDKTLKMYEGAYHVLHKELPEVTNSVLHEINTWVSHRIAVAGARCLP

[5] = target: T4, Fatty-acid amide hydrolase 1 (Homo sapiens) (UniProt O00519); assay: Inhibition of recombinant human FAAH assessed as blockage of […] labelling at 100 uM by ABPP assay
T4 sequence (whole entry): T1 sequence (O00519 whole entry)

[6] = target: T5, Fatty-acid amide hydrolase 1 (Mus musculus, UniProt O08914); assay: Inhibition of mouse brain FAAH by competitive ABPP assay; format: tissue-based
T5 sequence (O08914 whole entry): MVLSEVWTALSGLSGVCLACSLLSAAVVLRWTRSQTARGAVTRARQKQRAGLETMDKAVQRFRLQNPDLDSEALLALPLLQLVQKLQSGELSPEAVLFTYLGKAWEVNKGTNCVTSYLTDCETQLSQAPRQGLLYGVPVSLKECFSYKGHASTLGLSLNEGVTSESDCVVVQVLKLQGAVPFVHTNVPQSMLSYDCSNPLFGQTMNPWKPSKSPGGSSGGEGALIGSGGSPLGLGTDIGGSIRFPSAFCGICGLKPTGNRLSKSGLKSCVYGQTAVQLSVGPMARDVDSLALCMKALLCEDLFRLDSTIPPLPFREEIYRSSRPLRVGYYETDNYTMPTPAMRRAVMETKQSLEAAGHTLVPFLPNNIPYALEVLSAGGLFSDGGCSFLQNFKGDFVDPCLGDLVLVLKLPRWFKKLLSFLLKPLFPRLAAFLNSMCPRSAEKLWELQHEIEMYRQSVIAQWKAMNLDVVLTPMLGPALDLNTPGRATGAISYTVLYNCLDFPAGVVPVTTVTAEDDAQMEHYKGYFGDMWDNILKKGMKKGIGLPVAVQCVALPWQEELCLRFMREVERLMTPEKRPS

[7] = target: T6, Monoglyceride lipase (Homo sapiens) (UniProt Q99685); assay: Inhibition of recombinant human MAGL assessed as blockage of […] labelling at 100 uM by ABPP assay
T6 sequence (whole entry): T2 sequence (Q99685 whole entry)

[8] = target: T7, Fatty-acid amide hydrolase 1 (Rattus norvegicus) (UniProt P97612); assay: Inhibition of FAAH in rat eye homogenate assessed as blockage of […] labelling by ABPP assay; format: tissue-based
T7 sequence (whole entry): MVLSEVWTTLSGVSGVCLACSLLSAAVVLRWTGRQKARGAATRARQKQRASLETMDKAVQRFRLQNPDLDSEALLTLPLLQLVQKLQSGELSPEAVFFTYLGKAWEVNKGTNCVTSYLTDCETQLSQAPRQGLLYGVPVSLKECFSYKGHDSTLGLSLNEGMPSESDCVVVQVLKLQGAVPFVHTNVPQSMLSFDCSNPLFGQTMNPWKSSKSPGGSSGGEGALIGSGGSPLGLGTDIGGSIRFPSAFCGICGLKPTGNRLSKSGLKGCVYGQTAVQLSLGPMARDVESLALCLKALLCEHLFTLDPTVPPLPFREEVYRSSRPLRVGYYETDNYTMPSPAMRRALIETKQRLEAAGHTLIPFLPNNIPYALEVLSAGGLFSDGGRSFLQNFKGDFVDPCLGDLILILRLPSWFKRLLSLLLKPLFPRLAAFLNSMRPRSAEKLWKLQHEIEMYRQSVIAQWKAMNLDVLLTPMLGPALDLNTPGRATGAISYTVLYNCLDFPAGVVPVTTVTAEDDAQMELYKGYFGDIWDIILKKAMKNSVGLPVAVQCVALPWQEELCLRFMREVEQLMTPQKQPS

| IC50 [1] [µM] | Papp at 18 h [3] [nm/s] | Structure (SMILES) | IC50 [2] [µM] | inhibition [4] | inhibition [5] | IC50 [6] [µM] | inhibition [7] | inhibition [8] |
| --- | --- | --- | --- | --- | --- | --- | --- | --- |
| 0.382 | 2.8 | O=C(Oc1ccc([N+](=O)[O-])cc1)N1CCN(S(=O)(=O)c2ccc(-c3ccc(Cl)c(Cl)c3)cc2)CC1 |  |  |  |  |  |  |
| 0.38 | 2.3 | O=C(Oc1ccc([N+](=O)[O-])cc1)N1CCN(S(=O)(=O)c2ccc(Oc3cccc(Cl)c3)cc2)CC1 |  |  |  |  |  |  |
| 1.15 | 2.7 | O=C(Oc1ccc([N+](=O)[O-])cc1)N1CCN(S(=O)(=O)c2ccc(Oc3ccccc3Cl)cc2)CC1 |  |  |  |  |  |  |
| 0.437 | 1.9 | O=C(Oc1ccc([N+](=O)[O-])cc1)N1CCN(S(=O)(=O)c2ccc(-c3ccccc3)cc2)CC1 |  |  |  |  |  |  |
| 0.317 | 3.1 | O=C(Oc1ccc([N+](=O)[O-])cc1)N1CCN(S(=O)(=O)c2ccc(Oc3ccc(Cl)c(Cl)c3)cc2)CC1 |  |  |  |  |  |  |
| 0.333 | 2.4 | O=C(Oc1ccc([N+](=O)[O-])cc1)N1CCN(S(=O)(=O)c2ccc(C3CCCCC3)cc2)CC1 |  |  |  |  |  |  |
| 0.322 | 2.3 | O=C(Oc1ccc([N+](=O)[O-])cc1)N1CCN(S(=O)(=O)c2ccc(Oc3ccccc3)cc2)CC1 |  |  |  |  |  |  |
| 2.95 | 2.3 | O=C(Oc1ccc([N+](=O)[O-])cc1)N1CCN(S(=O)(=O)c2ccc(Oc3ncc(C(F)(F)F)cc3Cl)cc2)CC1 |  |  |  |  |  |  |

| Structure (SMILES) | IC50 [1] [µM] | Papp at 18 h [3] [nm/s] | IC50 [2] [µM] | inhibition [4] | inhibition [5] | IC50 [6] [µM] | inhibition [7] | inhibition [8] |
| --- | --- | --- | --- | --- | --- | --- | --- | --- |
| O=C(Oc1ccc([N+](=O)[O-])cc1)N1CCN(S(=O)(=O)c2ccc(Oc3ccc(Cl)cc3)cc2)CC1 | 0.153 | 2.4 | 2.06 |  |  |  |  |  |
| O=C(Oc1ccc([N+](=O)[O-])cc1)N1CCN(S(=O)(=O)c2ccc3ccccc3c2)CC1 |  | 2.6 | 0.284 | Active | 100% | 0.0105 | 100% | Active |
| CCCCc1ccc(S(=O)(=O)N2CCN(C(=O)Oc3ccc([N+](=O)[O-])cc3)CC2)cc1 | 0.179 | 2.6 | 0.759 | Active | Active |  | Active | Active |
